The source of these data is patent US12679878B2, “CRF2 receptor agonists and their use in therapy” (SANOFI, priority 2020, dated 2026).

Where two headings read alike, the source gives them in different places. Starred links: 1 amine or outer side, 2 acyl side, 3 side chain; linkers in the order of their positions; H or OH if unused. Non-standard residues stand in square brackets, D forms with d. Residues, ends and D or L forms follow the SMILES beside them. Groups on a side chain read outwards from the residue. *: point of attachment. C16 diacid = O=C(O)CCCCCCCCCCCCCCC(=O)*; γGlu = O=C(O)[C@H](CCC(=O)[*:2])N[*:1]; Palmitoyl = CCCCCCCCCCCCCCCC(=O)*; AEEA = NCCOCCOCC(=O)O; Aib = CC(C)(N)C(=O)O

By EC50 is commonly meant the concentration that produces a half-maximal response. The Emax is the size of the effect at its maximum, as opposed to the concentration needed.

Test [1] has as its target T1, CRF1R receptor (Homo sapiens, UniProt P34998).
T1 construct: host or cells: CHO-K1 clone 2
T1 sequence (P34998 24-415): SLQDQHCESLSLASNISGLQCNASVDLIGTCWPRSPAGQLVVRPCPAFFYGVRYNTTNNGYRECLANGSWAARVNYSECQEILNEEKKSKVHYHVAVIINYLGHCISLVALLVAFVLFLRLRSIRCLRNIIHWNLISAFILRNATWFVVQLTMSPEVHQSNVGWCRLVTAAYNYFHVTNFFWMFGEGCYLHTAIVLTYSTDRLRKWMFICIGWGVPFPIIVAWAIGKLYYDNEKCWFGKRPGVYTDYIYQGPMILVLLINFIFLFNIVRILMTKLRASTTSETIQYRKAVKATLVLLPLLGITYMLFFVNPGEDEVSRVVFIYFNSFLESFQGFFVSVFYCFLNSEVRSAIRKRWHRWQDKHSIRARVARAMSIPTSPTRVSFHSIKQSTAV
Description: cAMP activity at anti-target CRF1R, CHO-K1 cell line clone 2 (Example 19.10). It counts as cell-based. The note with it: for Emax: 100% = Sauvagine at 100 nM; for CRF1/CRF2 ratio: ratio of CRF1 EC50 to CRF2 EC50. In a few lines: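 The cAMP read-out used the same protocol as the previous assay, except that Sauvagine at 100 nM set the 100% activation control. Cells were CHO-K1 clone 2 overexpressing CRF1R, cultured in F12 medium with 10% FBS and G418 and stored frozen until use.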

In test [2] the target is T2, human CRF2α receptor (Homo sapiens, UniProt Q13324).
T2 construct: expressed in transfected cells; host or cells: TeloHEAC
T2 sequence (Q13324 1-411): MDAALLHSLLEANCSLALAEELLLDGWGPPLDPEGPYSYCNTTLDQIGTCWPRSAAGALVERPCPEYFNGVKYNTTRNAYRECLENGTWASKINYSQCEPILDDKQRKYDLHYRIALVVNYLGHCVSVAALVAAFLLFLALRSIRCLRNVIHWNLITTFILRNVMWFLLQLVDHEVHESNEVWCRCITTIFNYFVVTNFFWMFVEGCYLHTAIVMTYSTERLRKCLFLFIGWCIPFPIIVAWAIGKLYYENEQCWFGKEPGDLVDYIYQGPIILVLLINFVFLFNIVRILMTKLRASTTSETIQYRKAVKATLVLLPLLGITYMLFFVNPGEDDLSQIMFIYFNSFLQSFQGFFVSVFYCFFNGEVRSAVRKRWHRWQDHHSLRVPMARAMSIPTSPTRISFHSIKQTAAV
Description: cAMP agonism at human CRF2α receptor in TeloHEAC cells, FA modified peptides (Example 19.9). It counts as cell-based. Particulars: 0% HSA, relative to urocortin 2. As to the method:
Agonism of compounds for human corticotropin-releasing factor 2α (CRF2α receptor) was determined by a functional assay measuring cAMP modulation upon treatment of TeloHEAC cells stably expressing human CRF2α receptor.
Compounds were dissolved at 0.5 mM in 100% DMSO and serially diluted (1:2) in 100% DMSO for 16 dilutions. 20 nL of each dilution was then transferred to 384-well assay plate using an acoustic droplet ejection instrument. 5 μL of compound buffer (1×HBSS; 20 mM HEPES, 2 mM IBMX, 0% or 0.2% HSA) were then added to each well.
Prior to use, frozen cells were thawed quickly at 37° C. and washed (5 min at 900 rpm) with 20 mL cell buffer (1×HBSS; 20 mM HEPES). Cells were resuspended in cell buffer and adjusted to a cell density of 800.000 cells/ml.
5 μL cells (final dell density: 4000 cells/well) were dispensed in the compound-containing 384-well assay plate and incubated for 30 minutes 37° C.
The CAMP level in treated cells was determined using the Cisbio 62AM4PEC kit according to manufacturer's instruction. Finally, plates were incubated for 1 h at room temperature before measuring the fluorescence ratio between 665/620 nm.
The percent activity value (E %) was calculated by setting 100 nM of urocortin 2 (UCN2) as 100%. The in vitro potency of the compounds was quantified by determining the concentrations that caused 50% activation of maximal response (EC50) relative to urocortin 2.

Where [3] appears, read: 0% HSA, CRF1R CHO-K1 clone 2, read-out: EC50 [nM] 0% HSA.
[4] abbreviates: Table 20 side-to-side comparison, read-out: CRF1 EC50.

For `CC[C@H](C)[C@H](N)C(=O)N[C@H](C(=O)N[C@@H](CC(C)C)C(=O)N[C@@H](CO)C(=O)N[C@@H](CC(C)C)C(=O)N[C@@H](CC(=O)O)C(=O)N[C@@H](C(=O)N1CCC[C@H]1C(=O)N[C@H](C(=O)NCC(=O)N[C@@H](CC(C)C)C(=O)N[C@@H](CCCCNC(=O)CC[C@H](NC(=O)CCCCCCCCCCCCCCC(=O)O)C(=O)O)C(=O)N[C@@H](CCC(N)=O)C(=O)N[C@H](C(=O)N[C@@H](CC(C)C)C(=O)N[C@@H](CC(C)C)C(=O)N[C@@H](CCCCN)C(=O)N[C@@H](CCC(N)=O)C(=O)N[C@@H](CCC(=O)O)C(=O)N[C@@H](CCCNC(=N)N)C(=O)N[C@@H](CCC(N)=O)C(=O)N[C@@H](CCCCN)C(=O)N[C@@H](CCCCN)C(=O)NC(C)(C)C(=O)N[C@@H](CCCNC(=N)N)C(=O)N[C@@H](CCC(N)=O)C(=O)N[C@@H](CCC(N)=O)C(=O)N[C@@H](C)C(=O)N[C@@H](CCC(=O)O)C(=O)N[C@H](C(=O)N[C@@H](CC(N)=O)C(=O)N[C@@H](CCCCN)C(=O)N[C@@H](CCCNC(=N)N)C(=O)N[C@H](C(=O)N[C@@H](CC(C)C)C(=O)N[C@@H](CCC(=O)O)C(=O)N[C@@H](CCCNC(=N)N)C(=O)N[C@H](C(N)=O)C(C)C)[C@@H](C)CC)[C@@H](C)O)[C@@H](C)CC)[C@@H](C)CC)C(C)C)C(C)C` [compound 195] (H-IVLSLD[dV]PIGLK([γGlu-C16 diacid])QILLKQERQKK[Aib]RQQAETNKRILERV-NH2), the EC50 in test [1] (setting [3]) is > 100 nM; in test [1] (setting [4]), > 100 nM; in test [2], 0.34 nM. Also, in test [1] (CRF1R CHO-K1 clone 2), the Emax was 17.1%. Moreover, the CRF1/CRF2 ratio in test [1] was >500.
For `CC[C@H](C)[C@H](N)C(=O)N[C@H](C(=O)N[C@@H](CC(C)C)C(=O)N[C@@H](CO)C(=O)N[C@@H](CC(C)C)C(=O)N[C@@H](CC(=O)O)C(=O)N[C@@H](C(=O)N1CCC[C@H]1C(=O)N[C@H](C(=O)NCC(=O)N[C@@H](CC(C)C)C(=O)N[C@@H](CCCCNC(=O)CC[C@H](NC(=O)CCCCCCCCCCCCCCC(=O)O)C(=O)O)C(=O)N[C@@H](CCC(N)=O)C(=O)N[C@H](C(=O)N[C@@H](CC(C)C)C(=O)N[C@@H](CC(C)C)C(=O)N[C@@H](CCCCN)C(=O)N[C@@H](CCC(N)=O)C(=O)N[C@@H](CCC(=O)O)C(=O)N[C@@H](CCCNC(=N)N)C(=O)N[C@@H](CCC(N)=O)C(=O)N[C@@H](CCCCN)C(=O)N[C@@H](CCCCN)C(=O)NC(C)(C)C(=O)N[C@@H](CCCNC(=N)N)C(=O)N[C@@H](CCC(=O)O)C(=O)N[C@@H](CCC(N)=O)C(=O)N[C@@H](C)C(=O)N[C@@H](CCC(=O)O)C(=O)N[C@@H](CCCCN)C(=O)N[C@@H](CC(N)=O)C(=O)N[C@@H](CCCCN)C(=O)N[C@@H](CCCNC(=N)N)C(=O)N[C@H](C(=O)N[C@@H](CC(C)C)C(=O)N[C@@H](CCC(=O)O)C(=O)N[C@@H](CCCNC(=N)N)C(=O)N[C@H](C(N)=O)C(C)C)[C@@H](C)CC)[C@@H](C)CC)[C@@H](C)CC)C(C)C)C(C)C` [compound 196] (H-IVLSLD[dV]PIGLK([γGlu-C16 diacid])QILLKQERQKK[Aib]REQAEKNKRILERV-NH2; N-terminus assumed), the figures for the concentration for a half-maximal effect (EC50) in test [1] (setting [3]), in test [1] (setting [4]) and in test [2] were > 100 nM, > 100 nM and 1.08 nM, respectively. Also, in test [1] (CRF1R CHO-K1 clone 2), the Emax worked out at 16.9%. Further, in test [1], the CRF1/CRF2 ratio is >500.
With `CC[C@H](C)[C@H](N)C(=O)N[C@H](C(=O)N[C@@H](CC(C)C)C(=O)N[C@@H](CO)C(=O)N[C@@H](CC(C)C)C(=O)N[C@@H](CC(=O)O)C(=O)N[C@@H](C(=O)N1CCC[C@H]1C(=O)N[C@H](C(=O)N[C@@H](CCCCN)C(=O)N[C@@H](CC(C)C)C(=O)N[C@@H](CCCCNC(=O)CC[C@H](NC(=O)CCCCCCCCCCCCCCC(=O)O)C(=O)O)C(=O)N[C@@H](CCC(N)=O)C(=O)N[C@H](C(=O)N[C@@H](CC(C)C)C(=O)N[C@@H](CC(C)C)C(=O)N[C@@H](CCCCN)C(=O)N[C@@H](CCC(N)=O)C(=O)N[C@@H](C)C(=O)N[C@@H](CCCNC(=N)N)C(=O)N[C@@H](CCC(N)=O)C(=O)N[C@@H](CCCCN)C(=O)NC(C)(C)C(=O)N[C@@H](CCC(N)=O)C(=O)N[C@@H](CCCNC(=N)N)C(=O)N[C@@H](C)C(=O)N[C@@H](CCC(N)=O)C(=O)N[C@@H](C)C(=O)N[C@@H](CCC(=O)O)C(=O)N[C@@H](CCCCN)C(=O)N[C@@H](CC(N)=O)C(=O)N[C@@H](CCCCN)C(=O)N[C@@H](CCCNC(=N)N)C(=O)N[C@H](C(=O)N[C@@H](CC(C)C)C(=O)N[C@@H](CCC(=O)O)C(=O)N[C@@H](CCCNC(=N)N)C(=O)N[C@H](C(N)=O)C(C)C)[C@@H](C)CC)[C@@H](C)CC)[C@@H](C)CC)C(C)C)C(C)C` [compound 197] (H-IVLSLD[dV]PIKLK([γGlu-C16 diacid])QILLKQARQK[Aib]QRAQAEKNKRILERV-NH2; N-terminus assumed), the EC50 is > 100 nM in test [1] (setting [3]), > 100 nM in test [1] (setting [4]) and 2.27 nM in test [2]. The same compound came in with an Emax in test [1] (CRF1R CHO-K1 clone 2) of 24.4%. In addition, in test [1], the CRF1/CRF2 ratio is >500.
Compound `CCCCCCCCCCCCCCCC(=O)N[C@@H](CCC(=O)N[C@@H](CCC(=O)NCCOCCOCC(=O)NCCOCCOCC(=O)NCCCC[C@H](NC(=O)[C@H](CC(C)C)NC(=O)CNC(=O)[C@@H](NC(=O)[C@@H]1CCCN1C(=O)[C@H](NC(=O)[C@H](CC(=O)O)NC(=O)[C@H](CC(C)C)NC(=O)[C@H](CO)NC(=O)[C@H](CC(C)C)NC(=O)[C@@H](NC(=O)[C@@H](N)[C@@H](C)CC)C(C)C)C(C)C)[C@@H](C)CC)C(=O)N[C@@H](CCC(N)=O)C(=O)N[C@H](C(=O)N[C@@H](CC(C)C)C(=O)N[C@@H](CC(C)C)C(=O)N[C@@H](CCCCN)C(=O)N[C@@H](CCC(N)=O)C(=O)N[C@@H](CCC(=O)O)C(=O)N[C@@H](CCCNC(=N)N)C(=O)N[C@@H](CCC(N)=O)C(=O)N[C@@H](CCCCN)C(=O)N[C@@H](CCCCN)C(=O)NC(C)(C)C(=O)N[C@@H](CCCNC(=N)N)C(=O)N[C@@H](CCC(=O)O)C(=O)N[C@@H](CCC(N)=O)C(=O)N[C@@H](C)C(=O)N[C@@H](CCC(=O)O)C(=O)N[C@H](C(=O)N[C@@H](CC(N)=O)C(=O)N[C@@H](CCCCN)C(=O)N[C@@H](CCC(N)=O)C(=O)N[C@H](C(=O)N[C@@H](CC(C)C)C(=O)N[C@@H](C)C(=O)N[C@@H](CCC(N)=O)C(=O)N[C@H](C(N)=O)C(C)C)[C@@H](C)CC)[C@@H](C)O)[C@@H](C)CC)C(=O)O)C(=O)O` [compound 217] (H-IVLSLD[dV]PIGLK([AEEA-AEEA-γGlu-γGlu-Palmitoyl])QILLKQERQKK[Aib]REQAETNKQILAQV-NH2; N-terminus assumed) showed an EC50 in test [2] of 0.16 nM.
